In the NIST ThermoML archive (doi:10.1016/j.jct.2019.01.021):

Settings: for molar entropy: 101.33 kPa, Small (less than 1 g) adiabatic calorimetry

N.NS(=O)(=O)O [ammonium sulfamate]
Settings	molar entropy [J/K/mol]
5 K, Crystal 2	0.0002827
10 K, Crystal 2	0.07483
15 K, Crystal 2	0.4656
20 K, Crystal 2	1.33
25 K, Crystal 2	2.661
30 K, Crystal 2	4.49
35 K, Crystal 2	6.735
40 K, Crystal 2	9.229
45 K, Crystal 2	12.14
50 K, Crystal 2	15.13
55 K, Crystal 2	18.29
60 K, Crystal 2	21.53
65 K, Crystal 2	24.86
70 K, Crystal 2	28.35
75 K, Crystal 2	31.84
80 K, Crystal 2	35.42
90 K, Crystal 2	42.65
100 K, Crystal 2	49.97
110 K, Crystal 2	57.29
120 K, Crystal 2	64.6
130 K, Crystal 2	71.75
140 K, Crystal 2	78.82
150 K, Crystal 2	85.64
160 K, Crystal 2	92.29
170 K, Crystal 2	98.94
180 K, Crystal 2	105.59
190 K, Crystal 2	112.25
200 K, Crystal 2	118.07
210 K, Crystal 2	123.89
220 K, Crystal 2	130.54
230 K, Crystal 2	136.36
240 K, Crystal 2	141.35
260 K, Crystal 1	152.99
270 K, Crystal 1	157.97
280 K, Crystal 1	163.79
290 K, Crystal 1	168.78
298.15 K, Crystal 1	172.94
300 K, Crystal 1	173.77
310 K, Crystal 1	178.76
320 K, Crystal 1	183.75
330 K, Crystal 1	188.74

Settings	Normal melting temperature [°C]	Triple point temperature [K]
Crystal 1, DTA	133.0	–
Crystal 2, Adiabatic calorimetry	–	254.5
